In PubChem BioAssay AID1259407 (Chemical Carcinogenesis Research Information System (CCRIS), 2018):
Active and inactive are the calls of the source. How the calls were made is not given here.

System: CCRIS mutagenicity, Ames/micronucleus/aberration tests
Assay: CCRIS mutagenicity studies
Details: Test System: AMES SALMONELLA TYPHIMURIUM, Method: PREINCUBATION

Measured: mutagenic call

Cc1cccc(C#N)c1
inactive: Strain/Indicator: TA97, Metabolic Activation: HAMSTER, LIVER, S-9, AROCLOR 1254 (10%) inactive; negative | Strain/Indicator: TA97, Metabolic Activation: HAMSTER, LIVER, S-9, AROCLOR 1254 (30%) inactive; negative | Strain/Indicator: TA97, Metabolic Activation: NONE inactive; negative | Strain/Indicator: TA97, Metabolic Activation: RAT, LIVER, S-9, AROCLOR 1254 (10%) inactive; negative | Strain/Indicator: TA97, Metabolic Activation: RAT, LIVER, S-9, AROCLOR 1254 (30%) inactive; negative | Strain/Indicator: TA98, Metabolic Activation: HAMSTER, LIVER, S-9, AROCLOR 1254 (10%) inactive; negative | Strain/Indicator: TA98, Metabolic Activation: HAMSTER, LIVER, S-9, AROCLOR 1254 (30%) inactive; negative | Strain/Indicator: TA98, Metabolic Activation: NONE inactive; negative | Strain/Indicator: TA98, Metabolic Activation: RAT, LIVER, S-9, AROCLOR 1254 (10%) inactive; negative | Strain/Indicator: TA98, Metabolic Activation: RAT, LIVER, S-9, AROCLOR 1254 (30%) inactive; negative | Strain/Indicator: TA100, Metabolic Activation: HAMSTER, LIVER, S-9, AROCLOR 1254 (10%) inactive; negative | Strain/Indicator: TA100, Metabolic Activation: HAMSTER, LIVER, S-9, AROCLOR 1254 (30%) inactive; negative | Strain/Indicator: TA100, Metabolic Activation: NONE inactive; negative | Strain/Indicator: TA100, Metabolic Activation: RAT, LIVER, S-9, AROCLOR 1254 (10%) inactive; negative | Strain/Indicator: TA100, Metabolic Activation: RAT, LIVER, S-9, AROCLOR 1254 (30%) inactive; negative | Strain/Indicator: TA1535, Metabolic Activation: HAMSTER, LIVER, S-9, AROCLOR 1254 (10%) inactive; negative | Strain/Indicator: TA1535, Metabolic Activation: HAMSTER, LIVER, S-9, AROCLOR 1254 (30%) inactive; negative | Strain/Indicator: TA1535, Metabolic Activation: NONE inactive; negative | Strain/Indicator: TA1535, Metabolic Activation: RAT, LIVER, S-9, AROCLOR 1254 (10%) inactive; negative | Strain/Indicator: TA1535, Metabolic Activation: RAT, LIVER, S-9, AROCLOR 1254 (30%) inactive; negative
